US20220387405A1, “METHODS OF TREATMENT WITH N-((R)-1-(3-CHLOROPYRIDIN-2-YL)-2,2,2-TRIFLUOROETHYL)-2-((S)-2,6-DIOXOPIPERIDIN-3-YL)-1-OXOISOINDOLINE-5-CARBOXAMIDE” (CELGENE CORPORATION, priority 2021, published 2022)

Tests used:
CYP2D6 = biological target: T1, CYP2D6 (Homo sapiens, UniProt P10635); test: CYP inhibition in human liver microsomes, CYP2D6; assay type: in vitro ADME
T1 construct: In human liver microsomes; from tissue; host or cells: human liver microsomes

CYP3A4 = test: CYP induction in human hepatocyte culture, CYP3A4 mRNA; assay type: in vitro ADME; settings: up to 50 μM for three consecutive days
[1] = system: MV-4-11-luc disseminated AML xenograft; test: MV-4-11-luc disseminated AML xenograft model, tumor burden and survival; assay type: in vivo, mice
Experimental: The CK1α degradation activity and subsequent antitumor activity of Compound 1 in vivo was tested in two TP53 WT AML cell line-derived xenograft models. The depth and duration of CK1α degradation was dose-dependent.
In a subsequent study, MV-4-11-luc disseminated AML xenografts were treated with 2 cycles of fixed doses and varying dosing duration (5/28 days, 7/28 days and 14/28 days). […] In Kaplan-Meier survival analysis following cessation dosing, the median survival of the vehicle treated animals was 45.5 days. […] The median survival of animals treated with Compound 1 with 2 cycles of 7/28-days at 10, 30, and 50 mg/kg was 67.5 (p<0.0001), 70 (p<0.0001), and 70 (p<0.0001) days, respectively. For the animals treated with 2 cycles of 14/28-days at 3, 10 and 30 mg/kg was 69.5 (p<0.0001), 94.5 (p<0.0001) and 152 (p<0.0001) days, respectively. For 30 mg/kg with 14/28-day cycle, 4/10 animals remained tumor free at the termination of the study on day 154.

hERG potassium channel = biological target: T2, hERG potassium channel (Homo sapiens, UniProt Q12809); test: hERG IonWorks Barracuda patch clamp electrophysiology assay; assay type: cell-based; settings: human, HEK-293 cells expressing cloned hERG potassium channel; at 30 μM; read-out: percent inhibition
T2 construct: expressed in transfected cells; host or cells: HEK-293
Experimental: (§1) The effect of Compound 1 on the cloned hERG potassium channel expressed in the HEK-293 cell line was also investigated. […] The percent inhibition at 30 μM was 19%.

[2] = biological target: T3, cloned hERG potassium channel expressed in the HEK-293 cell line (Homo sapiens, UniProt Q12809); test: as above; assay type: cell-based
T3 construct: expressed in transfected cells; host or cells: HEK-293
Experimental: as §1

CYP2A6 = biological target: T4, CYP2A6 (Homo sapiens, UniProt P11509); test: CYP inhibition in human liver microsomes, CYP2A6; assay type: in vitro ADME
T4 construct: In human liver microsomes; from tissue; host or cells: human liver microsomes

CYP1A2 = test: CYP induction in human hepatocyte culture, CYP1A2 mRNA; assay type: in vitro ADME; settings: up to 50 μM for three consecutive days
[3] = system: CD34+ cells from BM samples of TP53 WT AML donors; test: Liquid culture of CD34+ cells from TP53 WT AML donors (FACS); assay type: cell-based, human
Experimental: CD34^+ cells isolated from BM samples of 3 TP53 WT AML donors and 3 healthy donors were treated with increasing concentrations of Compound 1 in liquid culture at times ranging from 4 hours to 5 days. […] Acute myeloid leukemia blasts sustained CK1α degradation up to 5 days in culture as assessed by fluorescence-activated cell sorting (FACS) analysis. Strikingly, p53 stabilization was sustained longer in leukemic cells (up to 48 hours) compared with normal BM cells (for 24 hours).

CYP2B6 [4] = biological target: T5, CYP2B6 (Homo sapiens, UniProt P20813); test: CYP inhibition in human liver microsomes, CYP2B6; assay type: in vitro ADME
T5 construct: In human liver microsomes; from tissue; host or cells: human liver microsomes

TP53 WT AML cell lines = test: Cell autonomous activity against TP53 WT AML cell lines; assay type: cell-based
Text: The remaining 5 cell lines were either medium-sensitive or completely resistant to Compound 1; the unresponsiveness to Compound 1 treatment was associated with inadequate accumulation of p53 protein and/or its transcriptional targets BAX and PUMA.

[5] = Nonclinical pharmacokinetics in rats; assay type: in vivo
Text: The systemic clearance of Compound 1 was low and the volume of distribution was high in rats and monkeys. […] Notable sex differences in PK were not observed in either species. Compound 1 had good oral bioavailability (≥50%) in rats and monkeys.

Plasma protein binding = assay type: in vitro ADME, human and nonclinical species
Text: (§2) There was no marked difference in free fraction among human, rat and monkey. Over the concentration ranges tested (25- to 50-fold range) in each species, there was <2-fold change in free fraction.

[6] = system: human peripheral blood (PB) lymphocytes; test: In vitro mammalian cell micronucleus test
Experimental: Compound 1 was tested in the in vitro mammalian cell micronucleus test in human peripheral blood (PB) lymphocytes in the presence and absence of a metabolic activation system, Aroclor-induced rat liver fraction (S9), for 4 hours, and in the absence of S9 for 24 hours. The highest concentration tested was 481 μg/mL. Dimethyl sulfoxide (DMSO) was used as the solvent. […] In addition, 2 lower concentrations with appropriate concentration and cytotoxicity spacing were chosen for micronucleus scoring in each regime.

[7] = Partitioning into blood cells; assay type: in vitro ADME
Text: as §2

CYP2B6 [8] = test: CYP induction in human hepatocyte culture, CYP2B6 mRNA; assay type: in vitro ADME; settings: up to 50 μM for three consecutive days

T3 sequence (Q12809 whole entry): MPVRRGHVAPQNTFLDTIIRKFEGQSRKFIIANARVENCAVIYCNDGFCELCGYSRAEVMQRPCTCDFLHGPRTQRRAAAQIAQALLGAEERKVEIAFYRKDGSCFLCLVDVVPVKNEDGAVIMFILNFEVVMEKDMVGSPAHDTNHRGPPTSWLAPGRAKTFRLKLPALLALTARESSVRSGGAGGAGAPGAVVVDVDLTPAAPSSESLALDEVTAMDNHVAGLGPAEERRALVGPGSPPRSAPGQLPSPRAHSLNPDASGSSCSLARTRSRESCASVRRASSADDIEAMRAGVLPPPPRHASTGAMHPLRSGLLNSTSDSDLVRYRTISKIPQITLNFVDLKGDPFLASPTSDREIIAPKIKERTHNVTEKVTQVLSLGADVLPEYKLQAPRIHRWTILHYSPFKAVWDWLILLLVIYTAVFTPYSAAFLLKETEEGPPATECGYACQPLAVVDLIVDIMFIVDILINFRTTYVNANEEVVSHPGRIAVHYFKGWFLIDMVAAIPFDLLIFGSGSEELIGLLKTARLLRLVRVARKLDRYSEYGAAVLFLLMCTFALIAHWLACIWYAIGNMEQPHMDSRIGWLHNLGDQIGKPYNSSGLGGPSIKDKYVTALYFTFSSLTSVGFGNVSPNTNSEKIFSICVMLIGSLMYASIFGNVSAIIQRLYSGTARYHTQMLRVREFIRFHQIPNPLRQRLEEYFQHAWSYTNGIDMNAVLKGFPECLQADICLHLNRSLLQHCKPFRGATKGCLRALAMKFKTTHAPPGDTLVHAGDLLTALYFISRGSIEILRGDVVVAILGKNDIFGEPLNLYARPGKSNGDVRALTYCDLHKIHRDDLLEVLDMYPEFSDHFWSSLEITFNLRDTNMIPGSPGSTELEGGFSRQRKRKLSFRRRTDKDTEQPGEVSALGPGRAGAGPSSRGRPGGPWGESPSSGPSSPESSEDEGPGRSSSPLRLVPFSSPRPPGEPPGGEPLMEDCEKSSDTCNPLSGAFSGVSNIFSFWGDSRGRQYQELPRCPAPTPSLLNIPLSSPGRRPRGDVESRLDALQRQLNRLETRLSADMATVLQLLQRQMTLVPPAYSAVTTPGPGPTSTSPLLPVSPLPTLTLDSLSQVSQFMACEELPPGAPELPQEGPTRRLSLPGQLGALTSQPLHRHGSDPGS
T1 sequence (P10635 whole entry): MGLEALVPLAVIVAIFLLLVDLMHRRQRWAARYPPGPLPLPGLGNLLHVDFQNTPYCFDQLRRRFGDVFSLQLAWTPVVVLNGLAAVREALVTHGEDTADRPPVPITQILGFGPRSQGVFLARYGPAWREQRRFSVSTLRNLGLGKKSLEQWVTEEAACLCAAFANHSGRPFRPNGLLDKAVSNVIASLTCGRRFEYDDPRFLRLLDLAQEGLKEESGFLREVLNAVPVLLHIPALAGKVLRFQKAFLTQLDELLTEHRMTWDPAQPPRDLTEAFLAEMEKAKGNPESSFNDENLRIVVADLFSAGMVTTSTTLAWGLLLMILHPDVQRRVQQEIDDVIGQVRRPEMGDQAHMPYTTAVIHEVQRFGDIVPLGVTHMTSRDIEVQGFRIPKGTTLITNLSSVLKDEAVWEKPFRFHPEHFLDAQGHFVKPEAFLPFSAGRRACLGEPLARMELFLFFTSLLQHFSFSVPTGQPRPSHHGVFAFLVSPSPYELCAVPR
T4 sequence (P11509 whole entry): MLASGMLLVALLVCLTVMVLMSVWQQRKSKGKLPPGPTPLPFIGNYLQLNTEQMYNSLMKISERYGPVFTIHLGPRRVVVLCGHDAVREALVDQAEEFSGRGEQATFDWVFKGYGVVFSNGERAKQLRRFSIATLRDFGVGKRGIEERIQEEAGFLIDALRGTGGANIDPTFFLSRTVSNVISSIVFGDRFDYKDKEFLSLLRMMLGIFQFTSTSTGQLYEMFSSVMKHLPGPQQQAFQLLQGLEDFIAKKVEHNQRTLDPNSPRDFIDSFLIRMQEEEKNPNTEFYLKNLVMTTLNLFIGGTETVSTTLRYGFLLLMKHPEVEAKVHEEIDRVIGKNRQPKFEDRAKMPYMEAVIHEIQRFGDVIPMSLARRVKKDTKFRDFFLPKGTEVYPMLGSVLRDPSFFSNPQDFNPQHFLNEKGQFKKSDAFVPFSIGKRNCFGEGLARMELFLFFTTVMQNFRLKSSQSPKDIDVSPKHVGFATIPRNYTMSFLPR
T5 sequence (P20813 whole entry): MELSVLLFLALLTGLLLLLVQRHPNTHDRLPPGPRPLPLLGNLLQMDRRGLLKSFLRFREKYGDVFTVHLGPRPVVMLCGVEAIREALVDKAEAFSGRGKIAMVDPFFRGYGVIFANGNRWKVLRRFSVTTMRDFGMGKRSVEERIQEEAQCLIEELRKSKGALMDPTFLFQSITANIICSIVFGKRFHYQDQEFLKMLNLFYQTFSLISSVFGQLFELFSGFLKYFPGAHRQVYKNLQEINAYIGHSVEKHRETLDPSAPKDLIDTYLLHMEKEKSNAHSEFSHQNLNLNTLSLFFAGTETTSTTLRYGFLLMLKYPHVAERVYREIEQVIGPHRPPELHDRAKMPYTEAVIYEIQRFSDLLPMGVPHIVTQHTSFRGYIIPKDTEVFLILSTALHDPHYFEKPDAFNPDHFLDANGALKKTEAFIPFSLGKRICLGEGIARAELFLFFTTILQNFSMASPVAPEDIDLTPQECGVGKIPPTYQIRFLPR
T2 sequence (Q12809 whole entry): as the sequence (Q12809 whole entry) above

## O=C1CC[C@H](N2Cc3cc(C(=O)N[C@H](c4ncccc4Cl)C(F)(F)F)ccc3C2=O)C(=O)N1 [Compound 1, N-((R)-1-(3-chloropyridin-2-yl)-2,2,2-trifluoroethyl)-2-((S)-2,6-dioxopiperidin-3-yl)-1-oxoisoindoline-5-carboxamide]
CYP2D6; CYP2D6, 30-minute preincubation with NADPH
  time-dependent inhibition: not a time-dependent inhibition
CYP2D6; human liver microsomes, CYP2D6
  inhibitory effect: ≤ 25%
CYP3A4
  mRNA expression of CYP3A4: no dose-dependent increases
[1]; 30 mg/kg, 14/28-day cycle, day 154
  animals remaining tumor free at termination of the study: 4/10
[1]; 2 cycles of 5/28-days at 50 mg/kg, vehicle 45.5 days
  median survival: 68.5 days
[1]; 2 cycles of 7/28-days at 10 mg/kg
  median survival: 67.5 days
[1]; 2 cycles of 7/28-days at 30 mg/kg
  median survival: 70 days
[1]; 2 cycles of 7/28-days at 50 mg/kg
  median survival: 70 days
[1]; 2 cycles of 14/28-days at 3 mg/kg
  median survival: 69.5 days
[1]; 2 cycles of 14/28-days at 10 mg/kg
  median survival: 94.5 days
[1]; 2 cycles of 14/28-days at 30 mg/kg
  median survival: 152 days
[1]; mice with disseminated MV-4-11 AML, dose-, schedule- and duration-dependent
  tumor burden: significantly reduced
hERG potassium channel
  inhibition at 30 µM: 19%
[2]; concentrations up to 30 μM
  precipitation in the assay: did not precipitate
[2]; hERG, IonWorks Barracuda patch clamp
  IC50: > 30000 nM
CYP2A6; CYP2A6, 30-minute preincubation with NADPH
  time-dependent inhibition: not a time-dependent inhibition
CYP2A6; human liver microsomes, CYP2A6
  inhibitory effect: ≤ 25%
CYP1A2
  mRNA expression of CYP1A2: no dose-dependent increases
[3]; AML blasts in culture, FACS
  duration of sustained CK1α degradation: up to 5 days
[3]; leukemic cells
  cellular outcome: apoptotic outcome
  duration of sustained p53 stabilization: up to 48 hours
CYP2B6 [4]; CYP2B6, 30-minute preincubation with NADPH
  time-dependent inhibition: not a time-dependent inhibition
CYP2B6 [4]; human liver microsomes, CYP2B6
  inhibitory effect: ≤ 25%
TP53 WT AML cell lines; of the 13 TP53 WT AML cell lines tested
  number of cell lines sensitive to Compound 1: 8
TP53 WT AML cell lines; the 8 sensitive of 13 TP53 WT AML cell lines tested
  IC50: 15 to 500 nM
[5]
  accumulation following multiple doses: No accumulation
  systemic clearance: low
  volume of distribution: high
[5]; rat, in vivo, po
  bioavailability: ≥ 50%
[5]; rat, in vivo, read-out: terminal half-life
  half-life: 1.5 to 1.7 h
Plasma protein binding; over the concentration ranges tested (25- to 50-fold range) in each species
  change in free fraction: < 2 fold
Plasma protein binding; plasma, human and nonclinical species
  fraction unbound: 0.007 to 0.103
[6]; 4 hours with and without S9, 24 hours without S9, compared with negative controls
  proportion of micronucleated binucleate cells (MBC): did not cause any statistically significant increases
[6]; human, 24 h, 120 μg/mL
  cytotoxicity based on CBPI: approximately 55%
[7]
  partitioning into blood cells: no or limited partitioning
CYP2B6 [8]
  mRNA expression of CYP2B6: no dose-dependent increases
